Reference: ChEMBL document CHEMBL1201862, “PubChem BioAssay data set” (2004)
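48-hour exposure; five concentrations; linearly interpolated endpoints. GI50 is the concentration that inhibits growth by half.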 Calls of active or inactive are those of the source. Cut-off read from the data, not from the text of the source: active = GI50 up to about 1.1 µM and inactive = higher.

How the values were obtained:
Test in all cases: NCI-60 cell line screen, 48 h
SK-OV-3 = system: SK-OV-3
ACHN = system: ACHN
RXF 393 = system: RXF 393
HL-60 = system: HL-60
HCT-116 = system: HCT-116
DU-145 = system: DU-145
UACC-62 = system: UACC-62
MOLT-4 = system: MOLT-4
T47D = system: T47D
NCI-H460 = system: NCI-H460
Malme-3M = system: Malme-3M
SW-620 = system: SW-620
PC-3 = system: PC-3
BT-549 = system: BT-549
HCC 2998 = system: HCC 2998
OVCAR-8 = system: OVCAR-8
HCT-15 = system: HCT-15
M14 = system: M14
UO-31 = system: UO-31

| SMILES | GI50 (SK-OV-3) | GI50 (ACHN) | GI50 (RXF 393) | GI50 (HL-60) | GI50 (HCT-116) | GI50 (DU-145) | GI50 (UACC-62) | GI50 (MOLT-4) | GI50 (T47D) | GI50 (NCI-H460) | GI50 (Malme-3M) | GI50 (SW-620) | GI50 (PC-3) | GI50 (BT-549) | GI50 (HCC 2998) | GI50 (OVCAR-8) | GI50 (HCT-15) | GI50 (M14) | GI50 (UO-31) |
| --- | --- | --- | --- | --- | --- | --- | --- | --- | --- | --- | --- | --- | --- | --- | --- | --- | --- | --- | --- |
| CCn1c(-c2cc(OC)cc(OC)c2)nc2c1C(=O)c1ccccc1C2=O | 3.9 µM (inactive) | > 100 µM (inactive) | 13.9 µM (inactive) | > 100 µM (inactive) | > 100 µM (inactive) | > 100 µM (inactive) | 20.6 µM (inactive) | > 100 µM (inactive) | > 100 µM (inactive) | > 100 µM (inactive) | > 100 µM (inactive) | > 100 µM (inactive) | > 100 µM (inactive) | > 100 µM (inactive) | > 100 µM (inactive) | > 100 µM (inactive) | > 100 µM | > 100 µM (inactive) |  |
| COC(=O)c1cc(C)ccc1C1CN=NC12Cc1c(C)cc(C)cc1C2=O (stereo not drawn) | 17 µM (inactive) | 40.5 µM (inactive) | 22.2 µM (inactive) | 6.1 µM (inactive) | 14.7 µM (inactive) | 28.4 µM (inactive) | 16.9 µM (inactive) | 15.7 µM (inactive) | 31 µM (inactive) | 18.1 µM (inactive) | 11.8 µM (inactive) | 33.2 µM (inactive) | 27.5 µM (inactive) | 24.7 µM (inactive) | 26.5 µM (inactive) | 33.8 µM (inactive) | 22.5 µM | 17 µM (inactive) | 23 µM (inactive) |
| Cc1cn(C2CC(n3cc(Cn4cc(F)c(=O)[nH]c4=O)nn3)C(CO)O2)c(=O)[nH]c1=O (stereo not drawn) | > 100 µM (inactive) | > 100 µM (inactive) | > 100 µM (inactive) | 43.7 µM (inactive) | > 100 µM (inactive) | > 100 µM (inactive) | > 100 µM (inactive) | > 100 µM (inactive) | > 100 µM (inactive) |  | > 100 µM (inactive) | > 100 µM (inactive) | > 100 µM (inactive) | > 100 µM (inactive) | > 100 µM (inactive) | > 100 µM (inactive) | > 100 µM | > 100 µM (inactive) | > 100 µM (inactive) |
| Cc1nc2c(=O)n3c4c(cccc4c2o1)CCC3 | > 100 µM (inactive) | > 100 µM (inactive) | > 100 µM (inactive) | > 100 µM (inactive) | 43.5 µM (inactive) | > 100 µM (inactive) | > 100 µM (inactive) | 37.9 µM (inactive) | > 100 µM (inactive) | 78 µM (inactive) | > 100 µM (inactive) | > 100 µM (inactive) | 45.9 µM (inactive) | > 100 µM (inactive) | > 100 µM (inactive) | > 100 µM (inactive) | 49.4 µM | > 100 µM (inactive) | > 100 µM (inactive) |
| C(=N\OCCc1ccccc1)/c1cccnc1 | > 100 µM (inactive) | > 100 µM (inactive) | > 100 µM (inactive) | 5.02 µM (inactive) | > 100 µM (inactive) | > 100 µM (inactive) | > 100 µM (inactive) | 76.7 µM (inactive) | > 100 µM (inactive) | > 100 µM (inactive) | > 100 µM (inactive) | > 100 µM (inactive) | > 100 µM (inactive) | > 100 µM (inactive) | > 100 µM (inactive) | > 100 µM (inactive) | > 100 µM | > 100 µM (inactive) | > 100 µM (inactive) |
| CCCCc1ccc(Nc2nc(Cl)c3c(ncn3COCCOC(C)=O)n2)cc1 | 17.1 µM (inactive) | 18.5 µM (inactive) | 12.9 µM (inactive) | 21.6 µM (inactive) | 17.3 µM (inactive) | 16.6 µM (inactive) | 16.6 µM (inactive) | 20.4 µM (inactive) | 17.8 µM (inactive) | 18.3 µM (inactive) | 19.4 µM (inactive) | 23.1 µM (inactive) | 20.9 µM (inactive) | 15 µM (inactive) | 19.9 µM (inactive) | 18.3 µM (inactive) | 16.3 µM | 17.9 µM (inactive) | 18.7 µM (inactive) |
| C(=N/Nc1ccccn1)/c1cccnc1 | > 100 µM (inactive) | > 100 µM (inactive) | > 100 µM (inactive) | > 100 µM (inactive) | > 100 µM (inactive) | > 100 µM (inactive) | 94.6 µM (inactive) | 76.2 µM (inactive) | > 100 µM (inactive) | > 100 µM (inactive) | 66.4 µM (inactive) | > 100 µM (inactive) | > 100 µM (inactive) | > 100 µM (inactive) | > 100 µM (inactive) | > 100 µM (inactive) | > 100 µM | 62.7 µM (inactive) | > 100 µM (inactive) |
| COc1cc2c3cc1Oc1c(OC)c(OC)cc4c1C(Cc1ccc(O)c(c1)Oc1ccc(cc1)CC3N(C)CC2)CN(C)C4 (stereo not drawn) | 23.4 µM (inactive) | 27.4 µM (inactive) | 10.6 µM (inactive) | 1.11 µM (active) | 6.05 µM (inactive) | 17.7 µM (inactive) | 18.1 µM (inactive) | 7.31 µM (inactive) | 22.1 µM (inactive) | 16 µM (inactive) | 16.8 µM (inactive) | 12.9 µM (inactive) | 21.1 µM (inactive) | 14.8 µM (inactive) | 3.44 µM (inactive) | 15 µM (inactive) | 14 µM | 4.1 µM (inactive) | 16.1 µM (inactive) |
| Cc1noc(NS(=O)(=O)c2ccc(NC(=O)c3ccc4nc5ccccc5c(Nc5ccc(S(=O)(=O)Nc6onc(C)c6C)cc5)c4c3)cc2)c1C | > 100 µM (inactive) | > 100 µM (inactive) | 40.3 µM (inactive) | 42.3 µM (inactive) | > 100 µM (inactive) | > 100 µM (inactive) | > 100 µM (inactive) | 80.5 µM (inactive) | 40.2 µM (inactive) | 67.3 µM (inactive) | > 100 µM (inactive) | 97.7 µM (inactive) | > 100 µM (inactive) | 24.8 µM (inactive) | > 100 µM (inactive) | > 100 µM (inactive) | 58.1 µM | > 100 µM (inactive) | > 100 µM (inactive) |
| CCOC(CCNCC(OCC)OCC)OCC | > 10 µM (inactive) | > 10 µM (inactive) | > 10 µM (inactive) | > 10 µM (inactive) | > 10 µM (inactive) | > 10 µM (inactive) | > 10 µM (inactive) | > 10 µM (inactive) | > 10 µM (inactive) | > 10 µM (inactive) | > 10 µM (inactive) |  | > 10 µM (inactive) | > 10 µM (inactive) | > 10 µM (inactive) | > 10 µM (inactive) | > 10 µM | > 10 µM (inactive) |  |
| CS[C@]12[C@@H]3C(=O)N(C)C(=O)[C@@H]3[C@](C)(C(=O)N1C)C(=O)N2c1ccccc1 | > 100 µM (inactive) | > 100 µM (inactive) | > 100 µM (inactive) | > 100 µM (inactive) | > 100 µM (inactive) | > 100 µM (inactive) | > 100 µM (inactive) | > 100 µM (inactive) | > 100 µM (inactive) |  | > 100 µM (inactive) | > 100 µM (inactive) | > 100 µM (inactive) | > 100 µM (inactive) | > 100 µM (inactive) | > 100 µM (inactive) | > 100 µM | > 100 µM (inactive) | > 100 µM (inactive) |
| CCOC(=O)C(C(=S)SC)c1nn2c(=O)cc(C)nc2s1 (stereo not drawn) | 22.9 µM (inactive) | 20.2 µM (inactive) | 20.8 µM (inactive) | 18.1 µM (inactive) | 18.6 µM (inactive) | 17.9 µM (inactive) | 20.4 µM (inactive) | 19.2 µM (inactive) | 19 µM (inactive) | 18.8 µM (inactive) | 16.4 µM (inactive) | 20.3 µM (inactive) | 20.9 µM (inactive) | 16.9 µM (inactive) | 25.5 µM (inactive) | 19.3 µM (inactive) | 20.3 µM | 15.6 µM (inactive) | 23 µM (inactive) |
| O=C1C2=C(C(=O)c3c(O)ccc(O)c31)[C@@H](O)[C@@H](O)[C@@H](O)C2 | 18.2 µM (inactive) | 2.52 µM (inactive) | 1.85 µM (inactive) | 0.635 µM (active) | 0.47 µM (active) | 2.72 µM (inactive) | 3.52 µM (inactive) | 2.94 µM (inactive) | 1.1 µM (active) | 4.71 µM (inactive) | 1.14 µM (inactive) | 0.681 µM (active) | 2.66 µM (inactive) | 1.43 µM (inactive) | 7.33 µM (inactive) | 2.31 µM (inactive) | 2.76 µM | 1.86 µM (inactive) | 4.66 µM (inactive) |
| CN(C)CCCNc1nnc(NCCCN(C)C)c2c(=O)c3sccc3[nH]c12 | 12.9 µM (inactive) | 5.85 µM (inactive) | 15 µM (inactive) | 3.59 µM (inactive) | 9.46 µM (inactive) | 8.75 µM (inactive) | 14.2 µM (inactive) | 3.24 µM (inactive) | 19.4 µM (inactive) | 3.51 µM (inactive) | 15.5 µM (inactive) | 4.56 µM (inactive) | 6.01 µM (inactive) | 32.1 µM (inactive) | 6.68 µM (inactive) | 3 µM (inactive) | 6.62 µM | 11.7 µM (inactive) | 2.75 µM (inactive) |
| O=C(Cn1c(C(=O)/C=C/c2ccco2)nc2ccccc21)c1ccc(Cl)cc1 | 44.4 µM (inactive) | 26.2 µM (inactive) | 30.4 µM (inactive) | 15.5 µM (inactive) | 16.3 µM (inactive) | 36.1 µM (inactive) | 22.8 µM (inactive) |  | 31.6 µM (inactive) | 12.3 µM (inactive) | 3.06 µM (inactive) | 25.4 µM (inactive) | 15.8 µM (inactive) | 14.9 µM (inactive) | 17.1 µM (inactive) |  | 20.6 µM | 19.9 µM (inactive) | 23.2 µM (inactive) |
